Reference: patent US5776970A, “Tryptophan derivatives as protein tyrosine kinase blockers and their use in the treatment of neoplastic diseases” (Yeda Research and Development Co. Ltd., priority 1994, dated 1998)
pIC50: −log10 of the molar value.

How the values were obtained:
[1] = molecular target: T1, insulin receptor tyrosine kinase (InsRTK) (Rattus norvegicus, UniProt P15127); test: PolyGlu4 Tyr phosphorylation by partially purified (wheat-germ-agglutinin purified) rat liver insulin receptor, cell-free; type: biochemical; set-up: wheat-germ-agglutinin purified rat liver insulin receptor; from tissue; host or cells: rat liver (wheat-germ-agglutinin purified); conditions: for Relative cell-free potency in inhibiting InsRTK: CBZ-DNPS-TRP-Taurine 100
Procedure: An assay of PolyGlu4 Tyr phosphorylation by partially purified insulin receptor was run for 30 min at 22° C. in 60 μl of 50 mM Hepes (pH 7.4)-0.1% Triton X-100 containing wheat-germ-agglutinin purified rat liver insulin receptor (1 μg protein), MgCl2 25 mM; MnCl2, 1 mM, ATP 17 μM, insulin 0.1 μM, PolyGlu4 Tyr, 0.17 mg/ml and the indicated concentrations in FIG. 1 of CBZ-DNPS-TRP-TAU. Phosphotyrosine content in PolyGlu4 Tyr was determined by a radioimmunoassay procedure (Shisheva et al., 1991). […] The inhibitory potency of other derivatives of formula I on InsRTK-catalyzed PolyGlu4 Tyr phosphorylation in cell-free experiments was determined. […] For comparison, the IC50 values for AC-TRP-TAU and L-tryptophan are 5 mM and >30 mM, respectively.
(§1) Various derivatives according to the invention in which R^1 is benzyloxycarbonyl (CBZ) or t-butoxycarbonyl (t-Boc), R^2 is --SO3 H or --PO3 H, n is 1,2 or 3, and R^3 is H, 2-nitrophenylthio (NPS) or 2,4-dinitrophenylthio (DNPS) were prepared and examined in cell-free and intact cell systems. The cell-free assay is PolyGlu4 Tyr phosphorylation by partially purified insulin receptor as described in Example 3. The assay in intact cells (namely, lipogenesis) was carried out as described in Example 4.
Target sequence in this assay (P15127 764-1383 limits assumed): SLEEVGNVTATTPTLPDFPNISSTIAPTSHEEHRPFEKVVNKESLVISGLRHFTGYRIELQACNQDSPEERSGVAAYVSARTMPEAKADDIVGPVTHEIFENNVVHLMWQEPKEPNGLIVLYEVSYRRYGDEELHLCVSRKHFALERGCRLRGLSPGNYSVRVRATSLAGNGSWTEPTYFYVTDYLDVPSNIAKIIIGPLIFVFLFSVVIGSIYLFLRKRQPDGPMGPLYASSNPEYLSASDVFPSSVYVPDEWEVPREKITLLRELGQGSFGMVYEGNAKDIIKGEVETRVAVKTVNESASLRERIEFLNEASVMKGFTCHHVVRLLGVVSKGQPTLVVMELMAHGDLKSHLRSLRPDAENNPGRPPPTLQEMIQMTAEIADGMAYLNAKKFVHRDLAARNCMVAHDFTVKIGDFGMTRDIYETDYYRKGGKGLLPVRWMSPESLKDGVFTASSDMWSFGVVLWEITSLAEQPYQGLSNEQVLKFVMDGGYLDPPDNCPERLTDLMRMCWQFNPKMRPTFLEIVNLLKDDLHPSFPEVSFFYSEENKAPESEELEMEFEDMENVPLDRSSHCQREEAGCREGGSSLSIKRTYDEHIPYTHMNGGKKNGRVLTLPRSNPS
Target sequence in this assay (P15127 27-759 partner limits assumed): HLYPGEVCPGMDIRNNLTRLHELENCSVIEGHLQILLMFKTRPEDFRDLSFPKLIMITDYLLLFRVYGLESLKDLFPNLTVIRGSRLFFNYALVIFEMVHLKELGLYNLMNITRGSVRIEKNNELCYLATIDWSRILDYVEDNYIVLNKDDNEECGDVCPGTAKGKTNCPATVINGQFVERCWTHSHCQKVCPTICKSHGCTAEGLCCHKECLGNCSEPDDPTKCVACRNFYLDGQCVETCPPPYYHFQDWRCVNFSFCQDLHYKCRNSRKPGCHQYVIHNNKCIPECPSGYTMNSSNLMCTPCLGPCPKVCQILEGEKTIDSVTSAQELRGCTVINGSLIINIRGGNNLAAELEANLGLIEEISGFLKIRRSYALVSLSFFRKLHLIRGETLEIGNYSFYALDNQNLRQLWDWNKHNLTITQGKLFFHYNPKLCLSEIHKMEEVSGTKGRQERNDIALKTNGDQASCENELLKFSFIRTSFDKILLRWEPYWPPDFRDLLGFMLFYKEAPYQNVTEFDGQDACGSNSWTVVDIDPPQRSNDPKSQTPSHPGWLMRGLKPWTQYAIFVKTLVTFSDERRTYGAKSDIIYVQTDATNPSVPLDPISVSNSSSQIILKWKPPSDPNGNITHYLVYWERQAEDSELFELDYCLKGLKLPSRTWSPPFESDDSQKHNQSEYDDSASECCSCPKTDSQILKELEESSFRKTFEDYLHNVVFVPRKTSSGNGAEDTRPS

rat adipocytes = test: permeability into cell interiors (intact cell system, lipogenesis); type: cell-based; conditions: graded in words
Procedure: Rat adipocytes were prepared essentially by the method of Rodbell, 1964. The fat pads of three rats were cut into small pieces with scissors and digested in 3 ml of Krebs-Ringer-Bicarbonate (KRB)-buffer containing 0.7% bovine serum albumin (BSA) (pH 7.4) with collagenase (1 mg/ml). The digestion was performed in a 25 ml flexible plastic bottle under an atmosphere of carbogen (95% O2, 5% CO2) for 40 min at 37° C. with vigorous shaking. Five ml of buffer was then added, and the cells were squeezed through a mesh screen. The cells were then allowed to stand for several minutes (in a 15 ml plastic test tube at room temperature, floating) and the buffer underneath was removed. This procedure (suspension, floating and removal of buffer underneath) was repeated three times. For [^14 C-U]glucose incorporation (lipogenesis), the fat cell suspensions (3×10^5 cells/ml) were divided into plastic vials (0.5 ml per vial) and incubated for 60 min at 37° C. under an atmosphere of 95% O2, 5% CO2, with 0.2 mM [U-^14 C]glucose, in either the presence or absence of insulin (100 ng/ml) and the indicated concentrations in FIG. 2 of CBZ-DNPS-TRP-TAU. The reaction was terminated by adding toluene-based scintillation fluid (1.0 ml per vial) and the extracted lipids were counted (Shechter and Karlish, 1980). Fat cell suspensions were pre-incubated for 20 min at 37° C. with increasing concentrations of the inhibitors. Results are expressed in FIG. 2 as the percent of maximal stimulation at the indicated concentrations of inhibitors. In all experiments insulin-stimulated lipogenesis was 4- to 5-fold higher than basal; basal ~2000 cpm per 3×10^5 cells/h; Vinsulin 8000-10,000 cpm per 3×10^5 cells/h.
as §1

[2] = system: murine T-cell lymphoma (LB3); test: insulin-dependent proliferation of murine T-cell lymphoma (LB3), thymidine incorporation; type: cell-based; conditions: 30,000 LB3 cells; insulin or other mitogens
Procedure: LB cells were removed from the peritoneal cavity of BALB/c mice, washed and resuspended in RPMI-1640. Then a continuous line designated LB3 was established in "LB medium" (50% RPMI-1640 plus 50% DCCM-1 in 10% fetal calf serum (FCS)). The LB3 cells were incubated (37° C., 5% CO2) in microplate wells (Nunc, Roskilde, Denmark) with 0.2 ml RPMI-1640 alone and in the same medium containing insulin, fetal calf serum (FCS) or both, and different concentrations of the compound CBZ-DNPS-TRP-TAU as indicated in FIG. 3. Proliferation capacity was determined by thymidine incorporation (^3 H-TdR, 1 μCi/well, specific activity 5 Ci/mM), added to the cells 24 hours later. In a typical experiment, cpm of ^3 H-thymidine incorporated into 30,000 cells was 12-14 fold higher in the presence of insulin or other mitogens than in their absence.

[3] = system: insulin-stimulated lipogenesis in rat adipocytes; test: insulin-stimulated lipogenesis in rat adipocytes ([U-14C]glucose incorporation); type: cell-based; conditions: insulin 100 ng/ml
Procedure: The fat pads of three rats were cut into small pieces with scissors and digested in 3 ml of Krebs-Ringer-Bicarbonate (KRB)-buffer containing 0.7% bovine serum albumin (BSA) (pH 7.4) with collagenase (1 mg/ml). […] Five ml of buffer was then added, and the cells were squeezed through a mesh screen. The cells were then allowed to stand for several minutes (in a 15 ml plastic test tube at room temperature, floating) and the buffer underneath was removed. This procedure (suspension, floating and removal of buffer underneath) was repeated three times. […] Fat cell suspensions were pre-incubated for 20 min at 37° C. with increasing concentrations of the inhibitors. Results are expressed in FIG. 2 as the percent of maximal stimulation at the indicated concentrations of inhibitors.

[4] = molecular target: T1, insulin receptor tyrosine kinase (InsRTK); test: inactivation of InsRTK by affinity reagent; type: biochemical; conditions: covalent affinity reagent
Description: Thus, to design and synthesize a low molecular weight blocker of InsRTK able to permeate into cell interiors, we first searched for an affinity reagent that would covalently bind and inactivate the InsRTK at low concentrations. […] The complementary hydrophilic domain of the InsRTK contains a lysine moiety that reacts covalently with the active ester and is likely to participate in substrate binding or catalysis. Equipped with this information we have synthesized a family of competitive inhibitors.
Target sequence in this assay (P15127 27-1383): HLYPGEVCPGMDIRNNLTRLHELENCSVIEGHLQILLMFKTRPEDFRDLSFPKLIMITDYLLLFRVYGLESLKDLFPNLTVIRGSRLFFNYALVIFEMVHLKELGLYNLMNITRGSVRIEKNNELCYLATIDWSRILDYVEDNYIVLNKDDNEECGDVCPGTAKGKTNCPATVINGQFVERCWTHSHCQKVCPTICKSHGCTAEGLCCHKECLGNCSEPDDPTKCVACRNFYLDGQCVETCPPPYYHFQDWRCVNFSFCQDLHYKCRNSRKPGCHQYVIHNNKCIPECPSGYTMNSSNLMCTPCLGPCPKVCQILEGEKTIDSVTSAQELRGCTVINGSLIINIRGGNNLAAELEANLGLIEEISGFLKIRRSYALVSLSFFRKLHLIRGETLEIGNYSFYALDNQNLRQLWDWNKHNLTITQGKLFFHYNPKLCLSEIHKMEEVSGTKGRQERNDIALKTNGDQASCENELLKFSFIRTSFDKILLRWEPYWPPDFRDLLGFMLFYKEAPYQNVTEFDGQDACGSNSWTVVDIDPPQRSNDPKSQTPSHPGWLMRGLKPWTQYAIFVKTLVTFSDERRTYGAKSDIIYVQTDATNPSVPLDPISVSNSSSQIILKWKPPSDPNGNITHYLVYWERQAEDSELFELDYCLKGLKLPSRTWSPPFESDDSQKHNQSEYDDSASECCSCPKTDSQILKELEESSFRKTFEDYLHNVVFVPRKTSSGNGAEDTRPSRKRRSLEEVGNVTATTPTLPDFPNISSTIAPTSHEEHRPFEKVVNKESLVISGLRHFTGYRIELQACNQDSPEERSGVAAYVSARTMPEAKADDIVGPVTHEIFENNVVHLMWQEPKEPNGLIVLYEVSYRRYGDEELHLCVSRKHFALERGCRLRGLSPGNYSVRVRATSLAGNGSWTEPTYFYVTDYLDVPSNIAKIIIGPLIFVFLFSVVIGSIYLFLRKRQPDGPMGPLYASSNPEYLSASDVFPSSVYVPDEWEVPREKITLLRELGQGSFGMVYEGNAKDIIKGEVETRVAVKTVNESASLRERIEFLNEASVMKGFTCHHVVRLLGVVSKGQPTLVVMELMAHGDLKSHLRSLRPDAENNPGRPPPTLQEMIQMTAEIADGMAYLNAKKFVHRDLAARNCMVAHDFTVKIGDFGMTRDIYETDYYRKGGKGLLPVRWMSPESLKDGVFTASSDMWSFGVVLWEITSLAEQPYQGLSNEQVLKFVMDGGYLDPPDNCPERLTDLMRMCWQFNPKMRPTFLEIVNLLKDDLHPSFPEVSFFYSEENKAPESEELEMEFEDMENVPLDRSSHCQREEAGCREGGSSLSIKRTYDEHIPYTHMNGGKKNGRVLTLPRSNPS

[5] = system: isoproterenol-mediated lipolysis; test: isoproterenol-mediated lipolysis in rat adipocytes (glycerol release); type: cell-based; conditions: isoproterenol 1 μM alone
Procedure: In general there are two classes of protein kinases (PKs) in mammalian tissues: (a) PKs which phosphorylate tyrosine moieties in proteins (to phosphotyrosine), and (b) PKs which phosphorylate serine and threonine moieties (to phosphoserine and phosphotreonine). […] An example for such a metabolic effect is lipolysis which depends on protein kinase A. Rat adipocytes (prepared by the method of Rodbell, 1964) were incubated with isoproterenol alone (1 μM) or isoproterenol with CBZ-DNPS-TRP-TAU (200 μM) for one hour at 37° C. The amount of glycerol released from the cells was then determined by spectroscopic procedure (Shechter, 1982).

solubility = conditions: water
[6] = cell-free, 30 min, 22° C., pH 7.4, ATP 17 μM, insulin 0.1 μM, read-out: IC50 value, InsRTK-catalyzed PolyGlu4 Tyr phosphorylation

Compound	Relative cell-free potency in inhibiting InsRTK [1]	Permeability into cell interiors (rat adipocytes)	also measured
O=C(O)CC(NC(=O)[C@H](Cc1c(Sc2ccc([N+](=O)[O-])cc2[N+](=O)[O-])[nH]c2ccccc12)NC(=O)OCc1ccccc1)C(=O)O (some centres unmarked) [CBZ-DNPS-TRP-Aspartic Acid]	5%	good	–
insulin	–	–	3H-thymidine incorporation in presence vs absence of insulin [2]: 12-14 fold; Vinsulin (lipogenesis) [3]: 8000-10,000 cpm per 3×10^5 cells/h
O=C(NC(Cc1ccccc1)C(=O)ON1C(=O)CCC1=O)OCc1ccccc1 (centres unmarked) [CBZ-Phe-OSU, benzyloxycarbonylphenyl-N-hydroxysuccinimide ester]	–	–	pIC50 [4]: 4.30
CC(=O)N[C@@H](Cc1c[nH]c2ccccc12)C(=O)NCCS(=O)(=O)O [AC-TRP-TAU, reference compound]	–	–	pIC50 [1, 6]: 2.30
O=C(N[C@@H](Cc1c(Sc2ccc([N+](=O)[O-])cc2[N+](=O)[O-])[nH]c2ccccc12)C(=O)NCS(=O)(=O)O)OCc1ccccc1 [CBZ-DNPS-TRP-aminomethyl-SO3, CBZ-DNPS-TRP-aminomethylsulfonic acid]	90%	excellent	–
CC(C)(C)OC(=O)N[C@@H](Cc1c(Sc2ccc([N+](=O)[O-])cc2[N+](=O)[O-])[nH]c2ccccc12)C(=O)NCCS(=O)(=O)O [tBoc-DNPS-TRP-Taurine, tBoc-DNPS-TRP-aminoethylsulfonic acid]	95%	excellent	–
CC(C)(C)OC(=O)N[C@@H](Cc1c(Sc2ccc([N+](=O)[O-])cc2[N+](=O)[O-])[nH]c2ccccc12)C(=O)NCS(=O)(=O)O [tBoc-DNPS-TRP-aminomethyl-SO3, tBoc-DNPS-TRP-aminomethylsulfonic acid]	80%	excellent	–
O=C(N[C@@H](Cc1c[nH]c2ccccc12)C(=O)NCCCS(=O)(=O)O)OCc1ccccc1 [CBZ-TRP-β-TAU]	–	–	pIC50 [1, 6]: 2.46
O=C(N[C@@H](Cc1c[nH]c2ccccc12)C(=O)NCP(=O)(O)O)OCc1ccccc1 [CBZ-TRP-aminomethyl-PO3]	5%	poor	–
O=C(N[C@@H](Cc1c(Sc2ccc([N+](=O)[O-])cc2[N+](=O)[O-])[nH]c2ccccc12)C(=O)NCCCS(=O)(=O)O)OCc1ccccc1 [CBZ-DNPS-TRP-aminopropyl-SO3, CBZ-DNPS-TRP-aminopropylsulfonic acid]	70%	excellent	–
CC(C)CC(NC(=O)OCc1ccccc1)C(=O)NCCS(=O)(=O)O (centres unmarked) [CBZ-leucine-Taurine, reference compound]	2%	poor	–
CC(C)NCC(O)c1ccc(O)c(O)c1 (centres unmarked) [Isoproterenol, isoproterenol, reference compound]	–	–	activity at 1 µM ([5]; Rattus norvegicus, Adipocyte, read-out: Percent lipolysis): 100%; Amount of glycerol released [5]: 165 nmol/3 × 10^5 cells/3 h
N[C@@H](Cc1c[nH]c2ccccc12)C(=O)O [L-tryptophan, reference compound]	–	–	pIC50 [1]: < 1.52
CC(C)(C)OC(=O)N[C@@H](Cc1c(Sc2ccc([N+](=O)[O-])cc2[N+](=O)[O-])[nH]c2ccccc12)C(=O)NCCCS(=O)(=O)O [tBoc-DNPS-TRP-aminopropyl-SO3, tBoc-DNPS-TRP-aminopropylsulfonic acid]	90%	excellent	–
O=C(N[C@@H](Cc1c(Sc2ccccc2[N+](=O)[O-])[nH]c2ccccc12)C(=O)NCCS(=O)(=O)O)OCc1ccccc1 [CBZ-NPS-TRP-TAU]	30%	good	pIC50 [1, 6]: 3.26
CC(=O)N[C@@H](Cc1c(Sc2ccc([N+](=O)[O-])cc2[N+](=O)[O-])[nH]c2ccccc12)C(=O)NCCS(=O)(=O)O [Acetyl-DNPS-TRP-Taurine]	80%	poor	inhibition of InsRTK in words ([1]; cell-free experiments): inhibits InSRTK; Permeability into cell interiors (rat adipocytes; listed as acetyl-DNPS-TRP-TAU): low permeability
O=C(N[C@@H](Cc1c[nH]c2ccccc12)C(=O)NCCS(=O)(=O)O)OCc1ccccc1 [CBZ-TRP-TAU]	20%	poor	solubility (solubility): ≤ 1300 mM; pIC50 [1, 6]: 2.57
